# According to ChEMBL document CHEMBL1159298, “Leonticins A-C, three octasaccharide saponins from Leontice kiangnanensis” (J Nat Prod, 1996):
# Active and inactive are the calls of the source. The rule behind the calls is not given here.
# System: KB
# Test: Cytotoxicity against human KB cells at 4 ug/ml
# Format: functional, cell-based
row,SMILES,Activity
1,C[C@@H]1O[C@@H](O[C@H]2CC[C@@]3(C)[C@@H](CC[C@]4(C)[C@@H]3CC=C3[C@@H]5CC(C)(C)CC[C@]5(C(=O)O)CC[C@]34C)[C@]2(C)CO)[C@H](O[C@@H]2O[C@H](CO)[C@@H](O)[C@H](O)[C@H]2O)[C@H](O)[C@H]1O,inactive
2,C[C@@H]1O[C@@H](O[C@H]2[C@H](O)[C@@H](O)[C@H](O[C@H]3[C@H](O)[C@@H](O)[C@H](OC(=O)[C@]45CCC(C)(C)C[C@H]4C4=CC[C@@H]6[C@@]7(C)CC[C@H](O[C@@H]8O[C@@H](C)[C@H](O)[C@@H](O[C@@H]9O[C@H](CO)[C@@H](O[C@@H]%10O[C@H](CO)[C@H](O)[C@H](O[C@@H]%11OC[C@@H](O)[C@H](O)[C@H]%11O)[C@H]%10O)[C@H](O)[C@H]9O)[C@H]8O[C@@H]8O[C@H](CO)[C@@H](O)[C@H](O)[C@H]8O)C(C)(C)[C@@H]7CC[C@@]6(C)[C@]4(C)CC5)O[C@@H]3CO)O[C@@H]2CO)[C@H](O)[C@H](O)[C@H]1O,inactive
3,C[C@@H]1O[C@@H](O[C@H]2CC[C@]3(C)[C@H]4CC=C5[C@@H]6CC(C)(C)CC[C@]6(C(=O)O)[C@H](O)C[C@@]5(C)[C@]4(C)CC[C@H]3C2(C)C)[C@H](O[C@@H]2O[C@H](CO)[C@@H](O)[C@H](O)[C@H]2O)[C@H](O[C@@H]2O[C@H](CO)[C@@H](O[C@@H]3O[C@H](CO)[C@H](O)[C@H](O[C@@H]4OC[C@@H](O)[C@H](O)[C@H]4O)[C@H]3O)[C@H](O)[C@H]2O)[C@H]1O,inactive
4,C[C@@H]1O[C@@H](O[C@H]2CC[C@]3(C)[C@H]4CC=C5[C@@H]6CC(C)(C)CC[C@]6(C(=O)O)CC[C@@]5(C)[C@]4(C)CC[C@H]3C2(C)C)[C@H](O[C@@H]2O[C@H](CO)[C@@H](O)[C@H](O)[C@H]2O)[C@H](O[C@@H]2O[C@H](CO)[C@@H](O[C@@H]3O[C@H](CO)[C@H](O)[C@H](O[C@@H]4OC[C@@H](O)[C@H](O)[C@H]4O)[C@H]3O)[C@H](O)[C@H]2O)[C@H]1O,inactive
5,C[C@@H]1O[C@@H](O[C@H]2[C@H](O)[C@@H](O)[C@H](O[C@H]3[C@H](O)[C@@H](O)[C@H](O[C@@H]4[C@@H](O)[C@@H](O)[C@H](O[C@H]5[C@H](O)[C@@H](O)[C@H](O[C@H]6[C@H](O)[C@@H](O)[C@H](OC(=O)[C@]78CCC(C)(C)C[C@H]7C7=CC[C@@H]9[C@@]%10(C)CC[C@H](O[C@@H]%11O[C@@H](C)[C@H](O)[C@@H](O)[C@H]%11O[C@@H]%11O[C@H](CO)[C@@H](O)[C@H](O)[C@H]%11O)[C@@](C)(CO)[C@@H]%10CC[C@@]9(C)[C@]7(C)CC8)O[C@@H]6CO)O[C@@H]5CO)O[C@H]4C)O[C@@H]3CO)O[C@@H]2CO)[C@H](O)[C@H](O)[C@H]1O,inactive
6,C[C@@H]1O[C@@H](O[C@H]2[C@H](O)[C@@H](O)[C@H](O[C@H]3[C@H](O)[C@@H](O)[C@H](OC(=O)[C@]45CCC(C)(C)C[C@H]4C4=CC[C@@H]6[C@@]7(C)CC[C@H](O[C@@H]8O[C@@H](C)[C@H](O)[C@@H](O[C@@H]9O[C@H](CO)[C@@H](O[C@@H]%10O[C@H](CO)[C@H](O)[C@H](O[C@@H]%11OC[C@@H](O)[C@H](O)[C@H]%11O)[C@H]%10O)[C@H](O)[C@H]9O)[C@H]8O[C@@H]8O[C@H](CO)[C@@H](O)[C@H](O)[C@H]8O)C(C)(C)[C@@H]7CC[C@@]6(C)[C@]4(C)C[C@H]5O)O[C@@H]3CO)O[C@@H]2CO)[C@H](O)[C@H](O)[C@H]1O,inactive
